Source: patent publication US8338455B2, “Compounds and methods of use” (Amgen Inc., priority 2006, dated 2012)

Biological target: KDR (Homo sapiens, UniProt P35968)
Experiment: KDR kinase inhibition (Ki)
Format: biochemical

KDR, sequence (P35968 20-1356, species assumed): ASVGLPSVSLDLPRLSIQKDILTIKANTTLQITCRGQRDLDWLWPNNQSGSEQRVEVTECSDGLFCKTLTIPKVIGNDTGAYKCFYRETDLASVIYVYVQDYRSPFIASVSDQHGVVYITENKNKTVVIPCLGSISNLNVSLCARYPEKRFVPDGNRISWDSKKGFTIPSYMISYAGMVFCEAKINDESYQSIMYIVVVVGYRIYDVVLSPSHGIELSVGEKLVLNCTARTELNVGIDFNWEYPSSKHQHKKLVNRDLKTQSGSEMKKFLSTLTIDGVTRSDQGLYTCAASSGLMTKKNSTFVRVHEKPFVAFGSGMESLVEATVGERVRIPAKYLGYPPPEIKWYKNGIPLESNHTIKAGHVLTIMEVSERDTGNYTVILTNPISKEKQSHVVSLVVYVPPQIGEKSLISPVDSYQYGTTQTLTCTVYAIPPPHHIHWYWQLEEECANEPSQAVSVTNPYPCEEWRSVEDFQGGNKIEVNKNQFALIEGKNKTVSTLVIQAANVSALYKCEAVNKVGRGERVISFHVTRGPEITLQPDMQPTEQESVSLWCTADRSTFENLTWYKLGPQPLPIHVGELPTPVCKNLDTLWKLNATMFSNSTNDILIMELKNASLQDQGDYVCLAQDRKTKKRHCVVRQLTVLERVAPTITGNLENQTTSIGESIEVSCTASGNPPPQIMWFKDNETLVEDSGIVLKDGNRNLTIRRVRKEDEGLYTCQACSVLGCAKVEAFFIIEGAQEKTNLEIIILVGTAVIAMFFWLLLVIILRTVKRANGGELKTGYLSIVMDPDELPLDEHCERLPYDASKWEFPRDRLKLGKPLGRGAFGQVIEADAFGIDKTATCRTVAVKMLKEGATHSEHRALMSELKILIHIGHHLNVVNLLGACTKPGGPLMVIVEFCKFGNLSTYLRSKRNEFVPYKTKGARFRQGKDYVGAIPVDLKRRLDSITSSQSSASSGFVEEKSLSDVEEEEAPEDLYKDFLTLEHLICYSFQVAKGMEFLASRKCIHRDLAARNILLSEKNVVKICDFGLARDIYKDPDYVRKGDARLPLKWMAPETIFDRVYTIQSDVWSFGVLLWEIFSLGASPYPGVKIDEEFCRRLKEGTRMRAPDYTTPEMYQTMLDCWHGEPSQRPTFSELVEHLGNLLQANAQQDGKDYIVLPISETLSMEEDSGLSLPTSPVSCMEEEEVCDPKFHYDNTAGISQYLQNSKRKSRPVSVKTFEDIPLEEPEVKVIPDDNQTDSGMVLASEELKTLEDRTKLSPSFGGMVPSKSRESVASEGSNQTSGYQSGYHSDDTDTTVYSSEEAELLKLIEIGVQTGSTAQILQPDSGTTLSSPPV

| Structure (SMILES) | Ki [nM] |
| --- | --- |
| COc1cc(NC(=O)c2cccc3c2CCN(Cc2ccnc4ccccc24)C3)cc(OC)c1 [Example 3C] | 42.8 |
| CC(C)(C)c1ccc(NC(=O)c2cccc3c2CCN(Cc2ccncc2)C3)cc1 [Example 1A] | 333 |
| COc1cc2nccc(CN3CCc4c(C(=O)Nc5ccc(Cl)c(C(F)(F)F)c5)cccc4C3=O)c2cc1OC [Example 10A] | 1.6 |
| COc1cc2nccc(Cn3ccc4cc(Cl)ccc4c3=O)c2cc1OC [Example 11, 6-chloro-2-((6,7-dimethoxyquinolin-4-yl)methyl)isoquinolin-1(2H)-one] | 529 |
| CC(=O)N1CC(C)(C)c2ccc(NC(=O)c3cccc4c3CCN(Cc3ccnc5ccccc35)C4)cc21 [Example 3H] | 5.4 |
| O=C(Nc1ccc(Cl)cc1)c1cccc2c1CCN(Cc1ccncc1)C2 [Example 1, N-(4-chlorophenyl)-2-(pyridin-4-ylmethyl)-1,2,3,4-tetrahydroisoquinoline-5-carboxamide] | 3000 |
| CC(C)c1ccc(NC(=O)Nc2cccc3c2CCN(Cc2ccnc4ccccc24)C3)cc1 [Example 5A] | 72.3 |
| Cc1cccc(NC(=O)c2cccc3c2CCN(Cc2ccnc4ccccc24)C3)c1 [Example 3A] | 105 |
| CC(C)(C)c1ccc(NC(=O)c2cccc3c2CCN(Cc2ccnc4ccccc24)C3=O)cc1 [Example 7A] | 11.1 |
| O=C(Nc1ccc(Cl)cc1)Nc1cccc2c1CCN(Cc1ccnc3ccccc13)C2 [Example 5C] | 70.1 |
